From the supplement of paper PMC8967900

Experiments:
Test in all cases: selective drug sensitivity score (sDSS, relative to normal bone marrow) (sDSS (score)); higher = more potent and effective on the cell line relative to normal bone marrow cells
Settings in all cases: 72 h
[1] = tested on: SUP-B15
[2] = tested on: MOLT-14
[3] = tested on: MHH-CALL-4
[4] = tested on: PEER
[5] = tested on: P12-ICHIKAWA
[6] = tested on: TMD5
[7] = tested on: TANOUE
[8] = tested on: KASUMI-2
[9] = tested on: ALL-PO
[10] = tested on: COG-LL-317
[11] = tested on: COG-LL-319h
[12] = tested on: NALM-16
[13] = tested on: NALM-6
[14] = tested on: MOLT-4
[15] = tested on: COG-LL-332h
[16] = tested on: PF-382
[17] = tested on: KASUMI-9
[18] = tested on: COG-LL-402h
[19] = tested on: REH
[20] = tested on: HAL-01
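Also: ALL cell lines in 384-well plates, five doses spanning 10,000-fold, each plate scaled between vehicle and 100 µmol/L benzalkonium chloride controls, sDSS an adapted area-under-curve metric.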

SMILES	selective drug sensitivity score [1]	selective drug sensitivity score [2]	selective drug sensitivity score [3]	selective drug sensitivity score [4]	selective drug sensitivity score [5]	selective drug sensitivity score [6]	selective drug sensitivity score [7]	selective drug sensitivity score [8]	selective drug sensitivity score [9]	selective drug sensitivity score [10]	selective drug sensitivity score [11]	selective drug sensitivity score [12]	selective drug sensitivity score [13]	selective drug sensitivity score [14]	selective drug sensitivity score [15]	selective drug sensitivity score [16]	selective drug sensitivity score [17]	selective drug sensitivity score [18]	selective drug sensitivity score [19]	selective drug sensitivity score [20]
Cc1ccc(C(=O)N(CCCN)[C@@H](c2oc3cc(Cl)ccc3c(=O)c2Cc2ccccc2)C(C)C)cc1 (top concentration 100 nM)	4.26	3.76	6.96	4.96	1.76	11.9	-3.64	3.56	-0.24	1.16	13	5.76	3.56	1.16	6.96	0.86	4.16	3.06	4.26	3.66
C[C@@H](Oc1ccc2[nH]nc(/C=C/c3cnn(CCO)c3)c2c1)c1c(Cl)cncc1Cl (top concentration 1000 nM)	6.76	-0.94	-0.64	5.46	-2.64	-0.74	-7.04	-7.04	4.96	-2.74	4.66	-1.44	7.16	-0.54	1.96	-2.14	-1.54	-2.14	-0.64	1.36
CCn1c(C(=O)N(C2CC2)C2CC2)cc2c3c(ncn3C)c(Nc3cc(C)n(C)n3)nc21 (top concentration 10000 nM)	-4.36	-4.36	-1.56	-4.36	-4.36	-4.36	-4.36	-4.36	8.14	-4.36	-4.36	-4.36	-4.36	-3.36	-4.36	-4.36	0.04	-4.36	-4.36	1.04
CNc1nc(-c2ccc3c(N)n[nH]c3c2)cc(N2C[C@@H](C(=O)NC3CCCCC3)CC[C@H]2C)n1 (top concentration 10000 nM)	9.96	-0.14	3.46	-0.14	-0.14	2.16	0.16	7.26	8.86	-0.14	2.96	3.86	2.96	-0.14	-0.14	2.76	6.36	6.36	3.86	-0.14
COc1ccc(Cn2ccc3ccc(C(=O)NO)cc32)cc1 (top concentration 10000 nM)	3.64	5.64	0.64	2.24	2.34	-0.96	1.34	-1.06	2.84	13.7	8.04	2.44	1.54	1.44	8.14	1.84	2.24	5.44	2.54	5.84
N#Cc1ccc(COC[C@H]2O[C@@H](n3c(NCc4ccc(Cl)c(Cl)c4)nc4c(N)ncnc43)[C@H](O)[C@@H]2O)cc1 (top concentration 10000 nM)	5.72	9.22	-0.68	10.7	7.22	-1.38	1.42	-0.08	4.82	6.22	7.52	-0.88	5.92	5.32	10.4	8.82	-0.58	2.02	9.12	0.42
NC[C@@](O)(c1ccc(Cl)cc1)c1ccc(-c2cn[nH]c2)cc1 (top concentration 10000 nM)	6.78	-1.22	1.78	3.08	3.58	4.98	-1.22	2.78	3.98	0.98	1.48	-1.22	1.28	-0.42	2.68	1.28	3.78	5.78	2.88	1.08
O=c1[nH]c(C2CCCN2)nc2c1oc1ccc(Cl)cc12 (stereo not given) (top concentration 10000 nM)	1.8	6.4	-1.2	0.3	0.1	-2.8	-2.8	7.2	-0.2	3.3	2	-1.9	-0.4	-2.8	6.7	2.4	-1	-1.5	0.3	0.2
NCC(=O)Nc1ccc(-n2nc(C(F)(F)F)cc2-c2ccc3c(ccc4ccccc43)c2)cc1 (top concentration 25000 nM)	7.5	11.2	2.9	9.9	16.7	-0.2	4.7	0.1	7.7	11.3	8	5.4	13.3	14.7	14.3	8	8.1	-0.2	12.5	5.5
